Measured values taken from ChEMBL document CHEMBL4354815, “Fibrinolysis Inhibitors: Potential Drugs for the Treatment and Prevention of Bleeding” (J Med Chem, 2020).
One block for each molecule: values may come before it.

Key:
Blood = test: Anti-fibrinolytic activity in human whole blood assessed as reduction in clot lysis incubated for 5 mins in presence of tissue-type plasminogen activator by rotational thromboelastometry; assay type: functional, tissue-based
[1] = Half life in rat, iv; assay type: ADME; details: in vivo
[2] = Plasma concentration in human at 0.219 mg/kg/h by liquid chromatography-tandem mass spectrometry; assay type: ADME, organism-based; details: in vivo
[3] = Half life in dog, iv; assay type: ADME, Canis lupus familiaris; details: in vivo
Plasminogen [4] = biological target: T1, Plasminogen (Homo sapiens, UniProt P00747); test: Inhibition of plasmin (unknown origin) assessed as reduction in amidolytic activity using S-2251 as the substrate after 4 mins
T1 sequence (P00747 97-580 limits assumed): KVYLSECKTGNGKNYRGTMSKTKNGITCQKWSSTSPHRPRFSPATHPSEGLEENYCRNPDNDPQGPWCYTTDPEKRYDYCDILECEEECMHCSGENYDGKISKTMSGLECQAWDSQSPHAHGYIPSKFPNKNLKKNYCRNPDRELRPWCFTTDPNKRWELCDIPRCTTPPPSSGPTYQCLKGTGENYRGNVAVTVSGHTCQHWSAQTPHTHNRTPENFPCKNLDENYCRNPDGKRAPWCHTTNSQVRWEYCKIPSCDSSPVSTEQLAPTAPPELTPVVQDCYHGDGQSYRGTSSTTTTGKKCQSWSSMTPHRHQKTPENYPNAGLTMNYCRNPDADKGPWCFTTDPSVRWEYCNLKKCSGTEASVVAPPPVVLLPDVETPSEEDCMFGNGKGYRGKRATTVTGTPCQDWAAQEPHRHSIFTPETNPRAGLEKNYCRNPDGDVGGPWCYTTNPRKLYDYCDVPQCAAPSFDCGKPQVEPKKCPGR
T1 sequence (P00747 581-810 limits assumed): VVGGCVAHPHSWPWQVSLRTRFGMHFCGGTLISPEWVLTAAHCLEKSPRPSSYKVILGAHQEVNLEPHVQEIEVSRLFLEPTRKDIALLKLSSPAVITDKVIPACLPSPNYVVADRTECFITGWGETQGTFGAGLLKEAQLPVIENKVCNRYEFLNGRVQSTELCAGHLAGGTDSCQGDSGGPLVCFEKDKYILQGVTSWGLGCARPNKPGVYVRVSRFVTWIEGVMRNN

Plasminogen [5] = biological target: T1, Plasminogen; test: Inhibition of human plasmin assessed as reduction in fibrinolysis
Plasminogen [6] = biological target: T1, Plasminogen; test: Inhibition of human plasmin assessed as km using S-2251 as the substrate
[7] = biological target: T2, Urokinase-type plasminogen activator (Homo sapiens, UniProt P00749); test: Inhibition of human urokinase-type plasminogen activator using S-2444 as substrate
Plasminogen [8] = biological target: T1, Plasminogen; test: Inhibition of plasmin (unknown origin)
[9] = biological target: Tissue-type plasminogen activator (Homo sapiens, UniProt P00750); test: Inhibition of tissue-type plasminogen activator (unknown origin)
Tissue-type plasminogen activator, sequence (P00750 whole entry): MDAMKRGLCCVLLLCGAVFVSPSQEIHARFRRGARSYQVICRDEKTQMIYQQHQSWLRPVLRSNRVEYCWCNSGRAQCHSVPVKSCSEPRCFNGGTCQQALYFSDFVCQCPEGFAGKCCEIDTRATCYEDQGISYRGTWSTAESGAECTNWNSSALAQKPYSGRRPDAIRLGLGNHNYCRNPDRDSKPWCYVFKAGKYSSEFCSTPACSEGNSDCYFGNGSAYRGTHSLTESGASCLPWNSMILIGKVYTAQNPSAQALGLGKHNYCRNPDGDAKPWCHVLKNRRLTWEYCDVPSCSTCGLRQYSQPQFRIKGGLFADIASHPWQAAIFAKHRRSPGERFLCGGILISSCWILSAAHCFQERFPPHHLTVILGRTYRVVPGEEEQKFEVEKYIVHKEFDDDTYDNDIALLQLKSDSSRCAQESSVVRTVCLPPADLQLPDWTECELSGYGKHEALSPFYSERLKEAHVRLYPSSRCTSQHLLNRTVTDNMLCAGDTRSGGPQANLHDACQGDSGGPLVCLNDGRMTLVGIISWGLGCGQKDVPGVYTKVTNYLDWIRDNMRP

[10] = biological target: T2, Urokinase-type plasminogen activator; test: Inhibition of urokinase-type plasminogen activator (unknown origin)
Plasminogen [11] = biological target: T1, Plasminogen; test: Inhibition of plasmin (unknown origin) using D-Val-Leu-Lys-p-nitroanilide as substrate

SMILES: N=C(N)c1ccc(CNC(=O)[C@H](Cc2cccc(CN)c2)NC(=O)[C@@H](CCCc2ccccc2)NS(=O)(=O)Cc2cccc(C(=O)O)c2)cc1
IC50 (Blood): 0.15 µM
half-life [1]: 20 min
concentration [2]: 900 nM
half-life [3]: 20 min

SMILES: NCCCC[C@H](NC(=O)[C@H]1CC[C@H](CN)CC1)C(=O)Nc1ccc(C(=O)c2ccccc2)cc1
IC50 (Plasminogen [4]): 15 µM
IC50 (Plasminogen [5]): 6.1 µM

SMILES: NC[C@H]1CC[C@H](C(=O)O)CC1 [TRANEXAMIC ACID]
IC50 (Blood): 2.75 µM
Ki [7]: 2000 µM

SMILES: N=C(N)c1ccc(CNC(=O)[C@@H]2CCN2C(=O)[C@H](NCC(=O)O)C2CCCCC2)cc1
Ki (Plasminogen [8]): 0.7 µM
Ki [9]: 0.9 µM
Ki [10]: 6.3 µM

Other lines, results leading:

Km (Plasminogen [6]): 30 µM
SMILES: CC[C@@H](C)[C@@H](N)C(=O)N[C@@H](Cc1ccccc1)C(=O)N[C@@H](CCCCN)C(=O)Nc1ccc([N+](=O)[O-])cc1

Ki (Plasminogen [11]): 5 to 10 µM
SMILES: O=C(CCC1CCCC(NC(=O)[C@H](Cc2c[nH]c3ccccc23)NC(=O)OCc2ccccc2)C1=O)N[C@@H](Cc1c[nH]c2ccccc12)C(=O)O (mixture of isomers)
